Activity calls are given as the source filed them. The rule behind the calls is not given here.
Assays:
[1] = Anticancer activity against human COLO205 cells by MTT assay; format: functional, cell-based; details: COLO 205
U-937 = experiment: Anticancer activity against human U937 cells by MTT assay; format: functional, cell-based
MCF7 = experiment: Anticancer activity against human MCF7 cells by MTT assay; format: functional, cell-based
A549 = experiment: Anticancer activity against human A549 cells by MTT assay; format: functional, cell-based
COLO 205 [2] = experiment: Induction of DNA damage in human COLO205 cells assessed as tail DNA formation by alkaline comet assay (reference value: 0%); format: functional
COLO 205 [3] = experiment: Induction of cell cycle arrest in human COLO205 cells assessed as accumulation at G2/M phase after 24 hrs by flow cytometry; format: functional, cell-based
[4] = Decrease in Bcl2 expression in human COLO205 cells after 24 hrs by western blot analysis; format: functional, cell-based; details: COLO 205
COLO 205 [5] = experiment: Increase in Bax expression in human COLO205 cells after 24 hrs by western blot analysis; format: functional, cell-based
[6] = Decrease in cyclin B1 expression in human COLO205 cells by western blot analysis; format: functional, cell-based; details: COLO 205
COLO 205 [7] = experiment: Effect on CDK1 expression in human COLO205 cells by western blot analysis; format: functional, cell-based
COLO 205 [8] = experiment: Increase in Apaf1 expression in human COLO205 cells after 24 hrs by western blot analysis; format: functional, cell-based
COLO 205 [9] = experiment: Increase in procaspase-3 expression in human COLO205 cells after 24 hrs by western blot analysis; format: functional, cell-based
COLO 205 [10] = experiment: Increase in active caspase-3 expression in human COLO205 cells after 24 hrs by western blot analysis; format: functional, cell-based
COLO 205 [11] = experiment: Increase in caspase-9 expression in human COLO205 cells after 24 hrs by western blot analysis; format: functional, cell-based
[12] = Decrease in NFkappaB expression in human COLO205 cells after 24 hrs by western blot analysis; format: functional, cell-based; details: COLO 205

SMILES | IC50 (U-937) [µM] | IC50 (MCF7) [µM] | IC50 (A549) [µM] | IC50 [1] [µM] | Activity (COLO 205 [2]) [%] | Activity (COLO 205 [3]) | Activity [4] | inhibition (COLO 205 [5]) | inhibition [6] | Activity (COLO 205 [7]) | Activity (COLO 205 [8]) | Activity (COLO 205 [9]) | Activity (COLO 205 [10]) | Activity (COLO 205 [11]) | inhibition [12]
Fc1ccccc1-c1cc(CN(c2ncccn2)c2nc3ccccc3s2)on1 | 27.6 | 19.5 | 25.4 | 13.2 |  |  |  |  |  |  |  |  |  |  | 
COc1cc(-c2cc(CN(c3ncccn3)c3nc4ccccc4s3)on2)cc(OC)c1OC | 26.1 | 13.4 | 28.4 | 10.2 |  |  |  |  |  |  |  |  |  |  | 
COc1ccc2nc(N(Cc3cc(-c4ccc(SC(F)(F)F)cc4)no3)c3nc4ccc(F)cc4s3)sc2c1 | 42.9 | 14.1 | 26.5 | 11.1 |  |  |  |  |  |  |  |  |  |  | 
COc1ccc2nc(N(Cc3cc(-c4cc(OC)c(OC)c(OC)c4)no3)c3nc4ccc(F)cc4s3)sc2c1 | 44 | 26.6 | 61.9 | 11.8 |  |  |  |  |  |  |  |  |  |  | 
COc1ccc2nc(N(Cc3cc(-c4ccccc4F)no3)c3nc4ccc(F)cc4s3)sc2c1 | 29.4 | 28.5 | 51.8 | 13.4 |  |  |  |  |  |  |  |  |  |  | 
COc1ccc2nc(N(Cc3cc(-c4ccc(Br)cc4)no3)c3nc4ccc(F)cc4s3)sc2c1 | 34.9 | 41.1 | 32.7 | 7 |  |  |  |  |  |  |  |  |  |  | 
COc1ccc(-c2cc(CN(c3nc4ccc(F)cc4s3)c3nc4ccc(OC)cc4s3)on2)cc1 | 138 | 32.4 | 38.8 | 11.4 |  |  |  |  |  |  |  |  |  |  | 

The next compounds have a lower IC50 (U-937) than those just listed; values first:

IC50 (U-937) [µM] | IC50 (MCF7) [µM] | IC50 (A549) [µM] | SMILES | IC50 [1] [µM] | Activity (COLO 205 [2]) [%] | Activity (COLO 205 [3]) | Activity [4] | inhibition (COLO 205 [5]) | inhibition [6] | Activity (COLO 205 [7]) | Activity (COLO 205 [8]) | Activity (COLO 205 [9]) | Activity (COLO 205 [10]) | Activity (COLO 205 [11]) | inhibition [12]
24.9 | 27.8 | 24.4 | C#CCN(c1nc2ccc(F)cc2s1)c1nc2ccc(OC)cc2s1 | 30.3 |  |  |  |  |  |  |  |  |  |  | 
23.1 | 17.4 | 37.1 | COc1ccc2nc(N(Cc3cc(-c4ccc(OC(F)(F)F)cc4)no3)c3nc4ccc(F)cc4s3)sc2c1 | 9.94 |  |  |  |  |  |  |  |  |  |  | 
19.4 | 17.2 | 29.8 | FC(F)(F)Sc1ccc(-c2cc(CN(c3ncccn3)c3nc4ccccc4s3)on2)cc1 | 10.1 |  |  |  |  |  |  |  |  |  |  | 
15.7 | 18.3 | 17.4 | C#CCN(c1ncccn1)c1nc2ccccc2s1 | 12 | 4.194 | Active | Active | Active |  |  |  |  |  |  | 
13.9 | 30.7 | 30.4 | COc1ccc(-c2cc(CN(c3ncccn3)c3nc4ccccc4s3)on2)cc1 | 5.04 | 17.72 | Active | Active | Active | Active | inactive | Active | Active | Active | Active | Active
13.6 | 21.1 | 31.5 | Brc1ccc(-c2cc(CN(c3ncccn3)c3nc4ccccc4s3)on2)cc1 | 8.82 |  |  |  |  |  |  |  |  |  |  | 
13.5 | 14.8 | 31.8 | FC(F)(F)Oc1ccc(-c2cc(CN(c3ncccn3)c3nc4ccccc4s3)on2)cc1 | 5.69 |  |  |  |  |  |  |  |  |  |  | 
10.1 | 0.008 | 4.7 | COc1cc([C@@H]2c3cc4c(cc3[C@@H](O[C@@H]3O[C@@H]5CO[C@@H](C)O[C@H]5[C@H](O)[C@H]3O)[C@H]3COC(=O)[C@H]23)OCO4)cc(OC)c1O [ETOPOSIDE] | 0.47 | 6.564 | Active | Active | Active |  |  |  |  |  |  | 

From ChEMBL document CHEMBL3621053, “Isoxazole derivatives of 6-fluoro-N-(6-methoxybenzo[d]thiazol-2-yl)benzo[d]thiazol-2-amine and N-(pyrimidin-2-yl)benzo[d]thiazol-2-amine: regulation of cell cycle and apoptosis by p53 activation via mitochondrial-dependent pathways” (Medchemcomm, 2014)
